According to ChEMBL document CHEMBL3425437, “Selective Inhibitors of Cyclin G Associated Kinase (GAK) as Anti-Hepatitis C Agents” (J Med Chem, 2015):
Each block holds one compound with its values, some of them ahead of it.

What was measured:
[1] = biological target: T1, Cyclin-G-associated kinase (Homo sapiens, UniProt O14976); test: Binding affinity to human GAK fused to T7 bacteriophage expressed in Escherichia coli BL21 after 1 hr by qPCR analysis
T1 sequence (O14976 whole entry): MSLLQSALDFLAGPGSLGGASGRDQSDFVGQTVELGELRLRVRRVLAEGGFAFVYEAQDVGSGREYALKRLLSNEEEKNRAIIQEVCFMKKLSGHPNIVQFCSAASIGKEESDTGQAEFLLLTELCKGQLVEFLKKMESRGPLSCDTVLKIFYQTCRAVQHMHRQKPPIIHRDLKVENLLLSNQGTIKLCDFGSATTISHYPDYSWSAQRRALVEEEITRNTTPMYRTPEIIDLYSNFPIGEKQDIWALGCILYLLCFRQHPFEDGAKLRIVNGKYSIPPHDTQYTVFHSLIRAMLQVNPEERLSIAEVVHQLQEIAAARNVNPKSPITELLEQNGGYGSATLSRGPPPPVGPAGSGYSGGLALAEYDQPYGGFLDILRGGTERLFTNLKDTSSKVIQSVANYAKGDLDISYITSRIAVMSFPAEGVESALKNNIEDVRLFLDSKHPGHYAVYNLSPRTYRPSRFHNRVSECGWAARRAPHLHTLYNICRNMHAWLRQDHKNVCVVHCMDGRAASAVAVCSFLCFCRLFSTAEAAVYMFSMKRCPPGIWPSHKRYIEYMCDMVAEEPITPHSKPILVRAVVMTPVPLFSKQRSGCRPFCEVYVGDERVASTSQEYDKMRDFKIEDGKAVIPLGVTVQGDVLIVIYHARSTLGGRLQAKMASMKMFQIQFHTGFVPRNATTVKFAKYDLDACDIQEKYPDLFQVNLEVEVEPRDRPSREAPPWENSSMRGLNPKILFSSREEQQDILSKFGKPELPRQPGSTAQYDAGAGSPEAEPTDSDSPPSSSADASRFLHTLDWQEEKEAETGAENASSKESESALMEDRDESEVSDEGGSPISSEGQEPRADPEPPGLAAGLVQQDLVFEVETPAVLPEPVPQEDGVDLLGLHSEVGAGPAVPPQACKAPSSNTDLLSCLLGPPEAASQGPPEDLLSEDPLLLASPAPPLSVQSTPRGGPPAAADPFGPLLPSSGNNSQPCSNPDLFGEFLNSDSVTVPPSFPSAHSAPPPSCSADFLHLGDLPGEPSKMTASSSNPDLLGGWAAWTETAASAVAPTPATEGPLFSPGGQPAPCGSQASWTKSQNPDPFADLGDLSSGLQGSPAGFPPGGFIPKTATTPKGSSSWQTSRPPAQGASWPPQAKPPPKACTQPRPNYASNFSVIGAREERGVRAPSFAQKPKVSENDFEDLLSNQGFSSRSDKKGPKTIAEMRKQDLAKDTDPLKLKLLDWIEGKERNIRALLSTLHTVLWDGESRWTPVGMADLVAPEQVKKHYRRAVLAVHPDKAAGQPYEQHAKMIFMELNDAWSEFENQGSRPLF

Hepatitis C virus [2] = test: Antiviral activity against Hepatitis C virus J6/JFH infected in human Huh7.5 cells assessed as inhibition of viral replication measured after 72 hrs by luciferase reporter gene assay; type: functional, organism-based, Hepacivirus hominis; details: Huh-7, 72 h
[3] = Cytotoxicity against human Huh7.5 cells infected with Hepatitis C virus J6/JFH assessed as effect on cell viability after 72 hrs by Alamarblue assay; type: cell-based; details: huh-7, 72 h
Hepatitis C virus [4] = test: Antiviral activity against Hepatitis C virus H77 pseudoparticle assessed as inhibition of viral entry into human Huh7.5 cells after 4 hrs by luciferase reporter gene assay; type: functional, cell-based, Hepacivirus hominis; details: genotype 1a H77, Huh-7, 4 h
[5] = Cytotoxicity against human Huh7.5 cells infected with Hepatitis C virus H77 pseudoparticle assessed as effect on cell viability after 4 hrs by Alamarblue assay; type: cell-based; details: huh-7, 4 h
Hepatitis C virus [6] = test: Antiviral activity against Hepatitis C virus J6/JFH electroporated in human Huh7.5 cells assessed as inhibition of intracellular infectivity drug treated every 24 hrs for 72 hrs measured 72 hrs post electroporation by luciferase reporter gene assay; type: functional, organism-based, Hepacivirus hominis; details: Huh-7
Hepatitis C virus [7] = test: Antiviral activity against Hepatitis C virus J6/JFH infected in human Huh7.5 cells assessed as inhibition of extracellular infectivity drug treated every 24 hrs for 72 hrs measured after 72 hrs by luciferase reporter gene assay; type: functional, organism-based, Hepacivirus hominis; details: Huh-7
[8] = biological target: Dual specificity protein kinase CLK2 (Homo sapiens, UniProt P49760); test: Binding affinity to human CLK2
[9] = biological target: Macrophage colony-stimulating factor 1 receptor (Homo sapiens, UniProt P07333); test: Binding affinity to human CSF1R
[10] = biological target: T2, Receptor-type tyrosine-protein kinase FLT3 (Homo sapiens, UniProt P36888); test: Binding affinity to human FLT3
T2 sequence (P36888 whole entry): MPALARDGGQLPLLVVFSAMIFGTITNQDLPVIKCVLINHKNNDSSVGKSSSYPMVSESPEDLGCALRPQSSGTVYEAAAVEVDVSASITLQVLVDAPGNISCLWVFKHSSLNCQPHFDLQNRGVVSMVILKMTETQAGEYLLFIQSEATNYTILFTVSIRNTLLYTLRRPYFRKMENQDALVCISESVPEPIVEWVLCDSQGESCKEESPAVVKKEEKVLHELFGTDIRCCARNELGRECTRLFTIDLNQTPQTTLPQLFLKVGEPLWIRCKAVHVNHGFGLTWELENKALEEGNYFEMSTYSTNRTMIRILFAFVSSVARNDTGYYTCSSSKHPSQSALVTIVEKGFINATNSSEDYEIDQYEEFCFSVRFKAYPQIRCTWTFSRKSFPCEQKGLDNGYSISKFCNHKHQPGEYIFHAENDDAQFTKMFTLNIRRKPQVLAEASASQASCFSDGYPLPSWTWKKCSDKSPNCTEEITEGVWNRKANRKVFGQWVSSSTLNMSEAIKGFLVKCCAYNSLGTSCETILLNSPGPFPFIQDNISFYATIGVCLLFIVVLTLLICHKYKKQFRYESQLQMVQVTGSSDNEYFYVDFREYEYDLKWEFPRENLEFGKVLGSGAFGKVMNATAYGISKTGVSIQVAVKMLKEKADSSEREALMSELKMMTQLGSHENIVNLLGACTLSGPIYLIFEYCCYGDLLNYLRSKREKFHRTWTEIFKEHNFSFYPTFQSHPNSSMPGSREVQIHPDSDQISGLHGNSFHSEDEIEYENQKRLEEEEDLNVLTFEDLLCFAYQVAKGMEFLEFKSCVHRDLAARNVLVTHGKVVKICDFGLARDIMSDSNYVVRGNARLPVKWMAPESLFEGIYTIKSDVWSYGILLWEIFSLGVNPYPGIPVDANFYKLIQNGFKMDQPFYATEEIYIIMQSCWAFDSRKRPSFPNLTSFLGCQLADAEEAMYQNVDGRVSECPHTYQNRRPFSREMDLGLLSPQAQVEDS

[11] = biological target: Mast/stem cell growth factor receptor Kit (Homo sapiens, UniProt P10721); test: Binding affinity to human KIT
[12] = biological target: T3, Dual specificity mitogen-activated protein kinase kinase 5 (Homo sapiens, UniProt Q13163); test: Binding affinity to human MEK5
T3 sequence (Q13163 whole entry): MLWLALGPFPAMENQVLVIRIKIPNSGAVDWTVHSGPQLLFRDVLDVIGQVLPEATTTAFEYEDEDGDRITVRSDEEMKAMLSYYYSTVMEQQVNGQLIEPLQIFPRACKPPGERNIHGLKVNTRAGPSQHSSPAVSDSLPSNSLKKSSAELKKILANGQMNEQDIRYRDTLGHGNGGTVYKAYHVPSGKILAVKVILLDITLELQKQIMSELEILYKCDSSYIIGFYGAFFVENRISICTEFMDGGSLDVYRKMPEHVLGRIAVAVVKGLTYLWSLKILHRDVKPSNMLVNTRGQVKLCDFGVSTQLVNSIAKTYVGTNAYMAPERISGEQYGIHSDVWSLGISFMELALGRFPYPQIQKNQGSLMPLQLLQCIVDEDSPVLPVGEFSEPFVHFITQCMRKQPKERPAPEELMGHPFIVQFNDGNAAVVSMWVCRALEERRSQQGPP

[13] = biological target: Platelet-derived growth factor receptor alpha (Homo sapiens, UniProt P16234); test: Binding affinity to human PDGFRalpha
[14] = biological target: Platelet-derived growth factor receptor beta (Homo sapiens, UniProt P09619); test: Binding affinity to human PDGFRbeta
Chain of Platelet-derived growth factor receptor beta (P09619 whole entry): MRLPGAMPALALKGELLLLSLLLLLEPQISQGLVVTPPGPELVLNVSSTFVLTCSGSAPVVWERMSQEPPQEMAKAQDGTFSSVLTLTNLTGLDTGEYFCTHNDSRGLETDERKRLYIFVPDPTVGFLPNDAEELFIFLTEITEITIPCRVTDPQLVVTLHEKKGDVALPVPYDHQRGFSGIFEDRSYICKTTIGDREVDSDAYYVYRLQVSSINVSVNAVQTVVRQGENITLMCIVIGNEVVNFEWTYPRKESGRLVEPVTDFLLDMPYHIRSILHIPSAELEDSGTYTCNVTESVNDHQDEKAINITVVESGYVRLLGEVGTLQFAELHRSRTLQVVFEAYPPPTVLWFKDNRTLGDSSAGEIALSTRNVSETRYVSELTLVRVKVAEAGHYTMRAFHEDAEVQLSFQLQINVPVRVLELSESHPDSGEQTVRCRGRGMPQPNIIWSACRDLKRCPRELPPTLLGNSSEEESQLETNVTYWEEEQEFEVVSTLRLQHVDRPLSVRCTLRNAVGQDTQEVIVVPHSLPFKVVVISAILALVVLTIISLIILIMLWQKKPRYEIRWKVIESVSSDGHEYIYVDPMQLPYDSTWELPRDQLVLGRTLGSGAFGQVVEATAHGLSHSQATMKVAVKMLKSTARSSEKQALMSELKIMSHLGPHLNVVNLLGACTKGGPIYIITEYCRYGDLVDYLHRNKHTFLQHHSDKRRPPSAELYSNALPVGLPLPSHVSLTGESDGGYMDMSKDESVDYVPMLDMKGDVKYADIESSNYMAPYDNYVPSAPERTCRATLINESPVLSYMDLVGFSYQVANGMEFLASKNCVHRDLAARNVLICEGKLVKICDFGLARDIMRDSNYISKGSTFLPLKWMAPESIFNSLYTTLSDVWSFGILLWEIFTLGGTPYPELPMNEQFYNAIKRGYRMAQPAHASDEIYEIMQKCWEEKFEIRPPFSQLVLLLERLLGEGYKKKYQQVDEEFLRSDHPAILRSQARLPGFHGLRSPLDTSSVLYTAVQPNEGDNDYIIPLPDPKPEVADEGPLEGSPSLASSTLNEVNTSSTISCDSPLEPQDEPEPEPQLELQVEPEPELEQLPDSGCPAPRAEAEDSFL

Chain of Mast/stem cell growth factor receptor Kit (P10721 whole entry): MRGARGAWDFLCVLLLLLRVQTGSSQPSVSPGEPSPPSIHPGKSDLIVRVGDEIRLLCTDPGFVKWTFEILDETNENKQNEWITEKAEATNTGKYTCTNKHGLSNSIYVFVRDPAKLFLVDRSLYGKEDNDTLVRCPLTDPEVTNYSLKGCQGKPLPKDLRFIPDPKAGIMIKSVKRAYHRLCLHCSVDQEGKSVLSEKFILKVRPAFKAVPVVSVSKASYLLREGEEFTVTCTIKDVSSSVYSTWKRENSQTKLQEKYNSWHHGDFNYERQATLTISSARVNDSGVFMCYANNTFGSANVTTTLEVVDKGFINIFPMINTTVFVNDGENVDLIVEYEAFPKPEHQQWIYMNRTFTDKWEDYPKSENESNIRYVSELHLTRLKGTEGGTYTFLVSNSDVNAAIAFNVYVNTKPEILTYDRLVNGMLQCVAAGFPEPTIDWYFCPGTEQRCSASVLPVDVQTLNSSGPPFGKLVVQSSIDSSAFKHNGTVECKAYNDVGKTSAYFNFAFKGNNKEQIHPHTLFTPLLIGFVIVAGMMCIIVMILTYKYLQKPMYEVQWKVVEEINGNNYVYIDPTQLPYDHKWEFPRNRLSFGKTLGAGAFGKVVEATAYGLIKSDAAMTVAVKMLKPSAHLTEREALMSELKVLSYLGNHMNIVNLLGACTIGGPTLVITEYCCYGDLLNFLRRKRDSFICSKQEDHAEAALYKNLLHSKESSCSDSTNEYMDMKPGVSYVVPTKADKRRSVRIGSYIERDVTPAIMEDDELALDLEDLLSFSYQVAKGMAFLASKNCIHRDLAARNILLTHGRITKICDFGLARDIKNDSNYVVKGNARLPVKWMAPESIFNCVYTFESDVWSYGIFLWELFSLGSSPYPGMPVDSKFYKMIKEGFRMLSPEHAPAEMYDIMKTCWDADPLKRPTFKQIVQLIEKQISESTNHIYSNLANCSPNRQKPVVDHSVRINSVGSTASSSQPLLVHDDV
Chain of Macrophage colony-stimulating factor 1 receptor (P07333 whole entry): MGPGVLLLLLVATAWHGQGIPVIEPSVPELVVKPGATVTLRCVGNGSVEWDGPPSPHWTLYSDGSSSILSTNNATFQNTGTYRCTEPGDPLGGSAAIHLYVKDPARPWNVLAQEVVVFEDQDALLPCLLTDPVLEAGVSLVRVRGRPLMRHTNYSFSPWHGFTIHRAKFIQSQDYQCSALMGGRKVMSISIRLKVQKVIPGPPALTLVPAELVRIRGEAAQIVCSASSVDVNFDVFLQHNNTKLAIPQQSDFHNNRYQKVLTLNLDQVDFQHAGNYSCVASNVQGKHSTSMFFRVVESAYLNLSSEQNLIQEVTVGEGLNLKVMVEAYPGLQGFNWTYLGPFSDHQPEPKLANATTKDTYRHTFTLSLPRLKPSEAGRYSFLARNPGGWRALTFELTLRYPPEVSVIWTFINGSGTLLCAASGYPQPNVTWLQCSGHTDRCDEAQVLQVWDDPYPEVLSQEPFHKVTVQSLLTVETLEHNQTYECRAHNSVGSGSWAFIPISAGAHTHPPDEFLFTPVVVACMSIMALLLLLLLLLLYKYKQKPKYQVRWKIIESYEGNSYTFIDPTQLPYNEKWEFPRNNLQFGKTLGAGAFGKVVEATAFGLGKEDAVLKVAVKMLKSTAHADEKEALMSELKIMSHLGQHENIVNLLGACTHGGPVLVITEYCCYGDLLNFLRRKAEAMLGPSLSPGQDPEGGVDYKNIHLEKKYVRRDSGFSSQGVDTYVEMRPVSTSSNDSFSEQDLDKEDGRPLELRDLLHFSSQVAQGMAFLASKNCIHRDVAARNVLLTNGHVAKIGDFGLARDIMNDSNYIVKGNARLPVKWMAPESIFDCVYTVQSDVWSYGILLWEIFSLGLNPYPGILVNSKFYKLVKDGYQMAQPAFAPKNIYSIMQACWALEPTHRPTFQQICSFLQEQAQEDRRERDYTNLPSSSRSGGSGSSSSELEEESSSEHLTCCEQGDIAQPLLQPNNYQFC
Chain of Dual specificity protein kinase CLK2 (P49760 whole entry): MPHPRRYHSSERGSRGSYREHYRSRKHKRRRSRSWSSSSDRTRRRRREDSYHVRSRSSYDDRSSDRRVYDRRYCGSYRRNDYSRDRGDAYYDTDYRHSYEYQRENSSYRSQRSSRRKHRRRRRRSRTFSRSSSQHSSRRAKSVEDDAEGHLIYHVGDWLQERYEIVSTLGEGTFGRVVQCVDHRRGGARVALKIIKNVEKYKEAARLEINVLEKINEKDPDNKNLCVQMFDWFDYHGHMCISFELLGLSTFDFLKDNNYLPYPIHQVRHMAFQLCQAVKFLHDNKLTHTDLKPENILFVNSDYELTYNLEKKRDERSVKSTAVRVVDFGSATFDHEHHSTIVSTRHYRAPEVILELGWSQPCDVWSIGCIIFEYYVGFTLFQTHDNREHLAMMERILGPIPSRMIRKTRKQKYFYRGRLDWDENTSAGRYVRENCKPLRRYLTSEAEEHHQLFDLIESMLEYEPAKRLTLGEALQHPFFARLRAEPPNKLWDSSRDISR
Chain of Platelet-derived growth factor receptor alpha (P16234 whole entry): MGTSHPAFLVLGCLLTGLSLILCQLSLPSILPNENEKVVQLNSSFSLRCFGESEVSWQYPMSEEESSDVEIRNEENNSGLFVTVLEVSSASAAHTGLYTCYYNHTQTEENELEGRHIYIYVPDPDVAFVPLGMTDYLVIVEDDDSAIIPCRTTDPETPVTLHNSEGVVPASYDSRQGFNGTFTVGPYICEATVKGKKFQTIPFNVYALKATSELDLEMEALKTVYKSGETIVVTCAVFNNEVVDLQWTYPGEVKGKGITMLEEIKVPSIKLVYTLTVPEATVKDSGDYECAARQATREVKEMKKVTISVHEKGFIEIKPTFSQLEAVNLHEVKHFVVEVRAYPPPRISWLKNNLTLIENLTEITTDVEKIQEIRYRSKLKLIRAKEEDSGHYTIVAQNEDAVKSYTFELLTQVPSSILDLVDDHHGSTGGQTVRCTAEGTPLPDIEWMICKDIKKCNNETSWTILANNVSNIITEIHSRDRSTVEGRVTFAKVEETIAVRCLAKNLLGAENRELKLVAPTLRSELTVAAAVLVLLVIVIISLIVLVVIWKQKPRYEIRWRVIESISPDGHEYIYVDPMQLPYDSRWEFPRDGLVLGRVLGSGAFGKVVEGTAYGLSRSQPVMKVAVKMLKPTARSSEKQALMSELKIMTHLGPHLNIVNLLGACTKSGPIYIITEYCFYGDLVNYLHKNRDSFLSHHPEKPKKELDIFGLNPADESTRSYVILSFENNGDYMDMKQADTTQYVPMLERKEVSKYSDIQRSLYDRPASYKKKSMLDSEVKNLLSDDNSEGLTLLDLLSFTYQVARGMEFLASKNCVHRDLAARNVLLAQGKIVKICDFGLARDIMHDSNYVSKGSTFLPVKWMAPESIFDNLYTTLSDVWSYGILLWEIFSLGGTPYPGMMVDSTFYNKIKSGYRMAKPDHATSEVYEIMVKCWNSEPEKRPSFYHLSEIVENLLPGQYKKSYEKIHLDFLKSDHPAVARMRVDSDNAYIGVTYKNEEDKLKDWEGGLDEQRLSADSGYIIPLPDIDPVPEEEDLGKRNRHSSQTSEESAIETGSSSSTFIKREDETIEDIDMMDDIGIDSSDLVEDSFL

Compound: COc1ccc(-c2cnc3c(N4CCOCC4)snc3c2)cc1OC
Kd [1]: 52 nM

Compound: c1cc(-c2cnc3c(N4CCOCC4)snc3c2)co1
Kd [1]: 200 nM

Compound: COc1ccc(OC)c(-c2cnc3c(N4CCOCC4)snc3c2)c1
Kd [1]: 130 nM

Compound: COc1cc(-c2cnc3c(N4CCOCC4)snc3c2)cc(OC)c1OC
EC50 (Hepatitis C virus [2]): 2550 nM | CC50 [3]: 23300 nM | EC50 (Hepatitis C virus [4]): 3600 nM | Activity [5]: Non-toxic | EC50 (Hepatitis C virus [6]): 1640 nM | EC50 (Hepatitis C virus [7]): 2130 nM | Kd [8]: 710 nM | Kd [9]: 320 nM | Kd [10]: 110 nM | Kd [11]: 29 nM | Kd [12]: 150 nM | Kd [13]: 220 nM | Kd [14]: 70 nM

Compound: COc1cc(-c2cnc3c(N4CCOCC4)snc3c2)ccc1OC(C)=O
Kd [1]: 18 nM

Compound: COc1cc(-c2cnc3c(N4CCOCC4)snc3c2)ccc1N
Activity [5]: Non-toxic

Compound: C#Cc1cccc(Nc2ncnc3cc(OCCOC)c(OCCOC)cc23)c1 [ERLOTINIB]
EC50 (Hepatitis C virus [2]): 500 nM | EC50 (Hepatitis C virus [6]): 500 nM | EC50 (Hepatitis C virus [7]): 500 nM

Now from value to compound:

Kd [1]: 42 nM
Compound: c1cc(-c2cnc3c(N4CCOCC4)snc3c2)cs1

Kd [1]: 72 nM
Compound: COc1cc(OC)cc(-c2cnc3c(N4CCOCC4)snc3c2)c1

Kd [1]: 18 nM
Compound: COc1cc(-c2cnc3c(N4CCOCC4)snc3c2)ccc1O
